Patent publication US20130171079A1, “COMPOSITION TO STABILISE KOJIC ACID” (Pangaea Laboratories Ltd., priority 2011, published 2013)

Legend:
[1] = background statement; accelerated by heat, UV or low pH; cited from earlier work
[2] = Colour-change stability test of 2% kojic acid in an aqueous cosmetic base with sodium metabisulphite and/or propyl gallate; type: physicochemical; conditions: over 42 days, room temperature, 2% kojic acid aqueous base
Protocol: A test was conducted to measure the effect of sodium metabisulphite and propyl gallate on the stability of kojic acid in aqueous cosmetic or pharmaceutical compositions. In this regard kojic acid is known to change colour from a slight yellow to very dark yellow as it degrades, and so colour change was used as the indicator of stability vs. degradation. All samples contained 2% kojic acid in an aqueous cosmetic base. [table] Each sample was photographed and optically assessed against a 20-stage yellow colour spectrum, where 1 was a very pale straw yellow, and 20 was a dark yellow. Photographs were taken on day 1, day 7 and day 42. In between photographs, the samples were stored together at normal room temperature.

[3] = Earlier experiments on stability (discolouration) of kojic acid solutions with stabilisers; type: physicochemical; conditions: two month period
Description: One useful, if obvious, solution to the problem would be to add a preservative such as sodium metabisulphite. Sodium metabisulphite is in a class of preservatives that release sulphur dioxide. […] However this option is not enough for two reasons. Firstly, two months is not sufficient shelf life for a cosmetic or pharmaceutical composition. Secondly, a preferable format for a skin lightening composition would also include one or more other lightening ingredients, such as lactic acid, niacinamide and ascorbic acid. The net effect of these ingredients may lower the pH, and accelerate the degradation of kojic acid. This has been shown in experiments to overcome the stabilising effect of sodium metabisulphite during a two month period.
It was then hypothesised that reducing agents or antioxidants may help by preventing free radical formation. Various antioxidants were tested without noticeable effect.
Researchers expected the combination to deliver better results that propyl gallate, but worse results than sodium metabisulphite alone. Instead the kojic acid solution remained completely clear for more than two months. The result is certainly not additive and therefore must be due to some previously unknown synergy between sodium metabisulphite and propyl gallate.

In the case of `O=c1cc(CO)occ1O` [kojic acid], the “stability of kojic acid in solution (in words)” value [1] is listed as “degrades within weeks in solution”.

With `CCCOC(=O)c1cc(O)c(O)c(O)c1` [propyl gallate] the “effect of the additive on stability of kojic acid (in words)” value [2] was “worsened stability slightly”.

For `O=S([O-])S(=O)(=O)[O-].[Na+].[Na+]` [sodium metabisulphite], the “stabilisation / discolouration of kojic acid solution (in words)” value [3] was “keeping discolouration to a low level for up to two months” and the “effect of the additive on stability of kojic acid (in words)” value [2] was “improved stability slightly”.
